Consider 33 molecules from patent publication US20190292179A1 (BRISTOL-MYERS SQUIBB COMPANY, priority 2016, published 2019).

One test has as its target T1, HIS-TGFβR1 T204D (Homo sapiens, UniProt P36897, T204D).
T1 sequence (P36897 34-503 T204D): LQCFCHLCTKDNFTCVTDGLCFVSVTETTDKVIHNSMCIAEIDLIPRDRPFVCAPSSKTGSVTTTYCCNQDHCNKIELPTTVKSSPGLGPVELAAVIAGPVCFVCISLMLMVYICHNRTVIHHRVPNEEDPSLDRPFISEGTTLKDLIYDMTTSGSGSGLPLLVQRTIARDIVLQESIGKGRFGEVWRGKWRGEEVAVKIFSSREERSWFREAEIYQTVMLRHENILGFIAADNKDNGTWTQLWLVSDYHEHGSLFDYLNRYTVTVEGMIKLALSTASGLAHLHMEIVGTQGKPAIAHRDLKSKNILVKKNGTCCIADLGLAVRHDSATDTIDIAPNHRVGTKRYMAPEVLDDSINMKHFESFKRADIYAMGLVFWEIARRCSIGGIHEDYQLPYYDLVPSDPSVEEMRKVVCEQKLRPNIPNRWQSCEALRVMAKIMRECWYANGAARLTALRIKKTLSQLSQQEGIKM
The test can be described thus: HTRF probe-displacement assay with HIS-TGFβR1 T204D. The test is classed as binding. Particulars: 1 nM HIS-TGFβR1 T204D, labeled probe at Kd, 1 hour at room temperature. On the procedure: (§1) The reaction is incubated for 1 hour at room temperature and the HTRF signal was measured on an Envision plate reader (Ex: 340 nm; Em: 520 nm/495 nm). Inhibition data were calculated by comparison to no enzyme control reactions for 100% inhibition and vehicle-only reactions for 0% inhibition. The final concentration of reagents in the assay are 1 nM HIS-TGFβR1 T204D or HIS-TGFβR2 WT, 0.2 nM anti-HIS detection antibody, labeled small molecule probe (at Kd) and 0.5% DMSO. Dose response curves were generated to determine the concentration required inhibiting 50% of kinase activity (IC50). Compounds were dissolved at 10 mM in dimethylsulfoxide (DMSO) and evaluated at eleven concentrations. IC50 values were derived by non-linear regression analysis.
On the technique in general: TR-FRET usually uses a lanthanide donor and a delayed reading to cut background.

The target in the next test is HIS-TGFβR2 WT (Homo sapiens, UniProt P37173). Description: HTRF probe-displacement assay with HIS-TGFβR2 WT. In kind it is binding. Conditions: 1 nM HIS-TGFβR2 WT, labeled probe at Kd, 1 hour at room temperature. On the procedure: as §1
Sequence of HIS-TGFβR2 WT (P37173 23-567): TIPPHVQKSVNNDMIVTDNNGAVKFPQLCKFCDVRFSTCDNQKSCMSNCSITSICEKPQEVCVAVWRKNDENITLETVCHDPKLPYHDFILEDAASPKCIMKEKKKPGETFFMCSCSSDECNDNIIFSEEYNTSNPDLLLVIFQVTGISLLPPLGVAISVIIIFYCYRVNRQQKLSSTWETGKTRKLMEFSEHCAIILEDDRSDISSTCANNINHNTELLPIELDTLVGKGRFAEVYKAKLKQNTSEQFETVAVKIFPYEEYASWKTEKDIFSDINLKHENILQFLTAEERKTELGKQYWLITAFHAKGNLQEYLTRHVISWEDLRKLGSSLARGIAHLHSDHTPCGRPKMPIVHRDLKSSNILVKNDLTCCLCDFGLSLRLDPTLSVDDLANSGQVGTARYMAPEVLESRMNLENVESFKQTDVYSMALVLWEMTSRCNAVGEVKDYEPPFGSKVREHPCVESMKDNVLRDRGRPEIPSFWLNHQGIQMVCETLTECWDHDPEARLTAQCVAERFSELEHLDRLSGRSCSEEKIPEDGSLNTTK

For `Cc1cccc(-c2n[nH]c(C3CC3)c2-c2ccc3ncc(C#N)n3c2)n1` [Example 121, 6-(5-cyclopropyl-3-(6-methylpyridin-2-yl)-1H-pyrazol-4-yl)imidazo[1,2-a]pyridine-3-carbonitrile], the concentration for half-maximal inhibition (IC50) (as a rule, the midpoint of a concentration-inhibition curve) at HIS-TGFβR1 T204D was 0.001 µM; at HIS-TGFβR2 WT, 0.216 µM.

On to `N#Cc1cnc2ccc(-c3c[nH]nc3-c3ccc(F)c(Cl)c3)cn12` [Example 41, 6-(3-(3-chloro-4-fluorophenyl)-1H-pyrazol-4-yl)imidazo[1,2-a]pyridine-3-carbonitrile], for which the IC50 on HIS-TGFβR1 T204D came out at 0.001 µM; on HIS-TGFβR2 WT it was 0.098 µM.

For the molecule `NC(=O)c1cnc2ccc(-c3c(-c4ccc(Cl)cc4)n[nH]c3C3CC3)cn12` [Example 97, 6-(3-(4-chlorophenyl)-5-cyclopropyl-1H-pyrazol-4-yl)imidazo[1,2-a]pyridine-3-carboxamide], the IC50 at HIS-TGFβR1 T204D is 0.001 µM; at HIS-TGFβR2 WT it was 6.36 µM.

As to `Cc1cccc(-c2nn(CC(F)F)cc2-c2ccc3ncc(C(N)=O)n3c2)n1` [Example 28, 6-(1-(2,2-difluoroethyl)-3-(6-methylpyridin-2-yl)-1H-pyrazol-4-yl)imidazo[1,2-a]pyridine-3-carboxamide], the IC50 on HIS-TGFβR1 T204D came to 0.001 µM; on HIS-TGFβR2 WT it was 0.075 µM.

Turning to `Cn1cc(-c2ccc3ncc(C(N)=O)n3c2)c(-c2ccc(F)cc2)n1` [Example 38, 6-(3-(4-fluorophenyl)-1-methyl-1H-pyrazol-4-yl)imidazo[1,2-a]pyridine-3-carboxamide], the figures for the IC50 on HIS-TGFβR1 T204D and on HIS-TGFβR2 WT were 0.002 µM and 1.54 µM, respectively.

Regarding `Cc1cccc(-c2nn(C)c(C)c2-c2ccc3ncc(C(N)=O)n3c2)n1` [Example 65, 6-(1,5-dimethyl-3-(6-methylpyridin-2-yl)-1H-pyrazol-4-yl)imidazo[1,2-a]pyridine-3-carboxamide], the results for the IC50 at HIS-TGFβR1 T204D and on HIS-TGFβR2 WT were 0.001 µM and 0.194 µM, respectively.

For `Cc1cc(-c2n[nH]c(C3CC3)c2-c2ccc3ncc(C#N)n3c2)ccc1F` [Example 99, 6-(5-cyclopropyl-3-(4-fluoro-3-methylphenyl)-1H-pyrazol-4-yl)imidazo[1,2-a]pyridine-3-carbonitrile], the IC50 at HIS-TGFβR1 T204D came to 0.001 µM; at HIS-TGFβR2 WT, 2.98 µM.

Molecule `Cc1cccc(-c2n[nH]cc2-c2ccc3ncc(C(N)=O)n3n2)n1` [Example 21, 6-(3-(6-methylpyridin-2-yl)-1H-pyrazol-4-yl)imidazo[1,2-b]pyridazine-3-carboxamide] yielded an IC50 on HIS-TGFβR2 WT of 0.205 µM.

Regarding `N#Cc1cnc2ccc(-c3c[nH]nc3-c3cccc(C(F)F)n3)cn12` [Example 4, 6-(3-(6-(difluoromethyl)pyridin-2-yl)-1H-pyrazol-4-yl)imidazo[1,2-a]pyridine-3-carbonitrile], the IC50 on HIS-TGFβR1 T204D turned out to be 0.001 µM; on HIS-TGFβR2 WT, 1.11 µM.

The molecule `N#Cc1cnc2ccc(-c3c[nH]nc3-c3cccc(F)n3)cn12` [Example 6, 6-(3-(6-fluoropyridin-2-yl)-1H-pyrazol-4-yl)imidazo[1,2-a]pyridine-3-carbonitrile] gave an IC50 at HIS-TGFβR2 WT of 0.259 µM. In other words, the sub-micromolar range.

`NC(=O)c1cnc2ccc(-c3c[nH]nc3-c3cccc(C(F)F)n3)cn12` [Example 5, 6-(3-(6-(difluoromethyl)pyridin-2-yl)-1H-pyrazol-4-yl)imidazo[1,2-a]pyridine-3-carboxamide] displayed an IC50 on HIS-TGFβR2 WT of 0.193 µM.

For the molecule `NC(=O)c1cnc2ccc(-c3c(-c4ccc(F)cc4)n[nH]c3C3CC3)cn12` [Example 85, 6-(5-cyclopropyl-3-(4-fluorophenyl)-1H-pyrazol-4-yl)imidazo[1,2-a]pyridine-3-carboxamide], at HIS-TGFβR2 WT, the IC50 worked out at 0.143 µM.

Turning to `Cc1cccc(-c2n[nH]cc2-c2ccc3nccn3n2)n1` [Example 19, 6-(3-(6-methylpyridin-2-yl)-1H-pyrazol-4-yl)imidazo[1,2-b]pyridazine], the IC50 on HIS-TGFβR2 WT turned out to be 0.277 µM.

`Cc1nc(-c2nn(C)cc2-c2ccc3ncc(C(N)=O)n3c2)ccc1F` [Example 12, 6-(3-(5-fluoro-6-methylpyridin-2-yl)-1-methyl-1H-pyrazol-4-yl)imidazo[1,2-a]pyridine-3-carboxamide] registered an IC50 on HIS-TGFβR2 WT of 0.396 µM.

Molecule `NC(=O)c1cnc2ccc(-c3cn(CC(F)F)nc3-c3ccc(F)c(Cl)c3)cn12` [Example 62, 6-(3-(3-chloro-4-fluorophenyl)-1-(2,2-difluoroethyl)-1H-pyrazol-4-yl)imidazo[1,2-a]pyridine-3-carboxamide] registered an IC50 at HIS-TGFβR2 WT of 0.518 µM.

For the molecule `Nc1cc(-c2c[nH]nc2-c2ccc(F)cc2)cn2ccnc12` [Example 32, 6-(3-(4-fluorophenyl)-1H-pyrazol-4-yl)imidazo[1,2-a]pyridin-8-amine], the IC50 at HIS-TGFβR1 T204D was 0.465 µM.

In turn, `Cc1cc(-c2n[nH]cc2-c2ccc3ncc(C(N)=O)n3c2)ccc1F` [Example 50, 6-(3-(4-fluoro-3-methylphenyl)-1H-pyrazol-4-yl)imidazo[1,2-a]pyridine-3-carboxamide] returned an IC50 on HIS-TGFβR2 WT of 0.368 µM.

Molecule `Cc1cccc(-c2nn(C)cc2-c2ccc3ncc(C(C)(C)O)n3c2)n1` [Example 52] came in with an IC50 at HIS-TGFβR1 T204D of 0.007 µM.

Take `Cn1cc(-c2ccc3ncc(C#N)n3c2)c(-c2cccc(C(F)(F)F)n2)n1` [Example 9, 6-(1-methyl-3-(6-(trifluoromethyl)pyridin-2-yl)-1H-pyrazol-4-yl)imidazo[1,2-a]pyridine-3-carbonitrile]: on HIS-TGFβR1 T204D, the IC50 stood at 0.024 µM.

On to `N#Cc1cnc2ccc(-c3c(-c4ccc(F)cc4)nn4c3COCC4)cn12` [Example 110, 6-(2-(4-fluorophenyl)-6,7-dihydro-4H-pyrazolo[5,1-c][1,4]oxazin-3-yl)imidazo[1,2-a]pyridine-3-carbonitrile], for which, at HIS-TGFβR1 T204D, the IC50 is 0.173 µM.

The molecule `N#Cc1cnc2ccc(-c3c(-c4ccc(F)cc4)n[nH]c3C(=O)O)cn12` [Example 129] had an IC50 on HIS-TGFβR1 T204D of 1.76 µM.

`CCOC(=O)c1[nH]nc(-c2ccc(F)cc2)c1-c1ccc2nccn2c1` [Example 132, ethyl 3-(4-fluorophenyl)-4-(imidazo[1,2-a]pyridin-6-yl)-1H-pyrazole-5-carboxylate] had an IC50 on HIS-TGFβR1 T204D of 0.758 µM. Compared with the last molecule, the IC50 is about 2.3-fold lower.

Take `CC(C)(O)c1[nH]nc(-c2ccc(F)cc2)c1-c1ccc2nccn2c1` [Example 137, 2-(3-(4-fluorophenyl)-4-(imidazo[1,2-a]pyridin-6-yl)-1H-pyrazol-5-yl)propan-2-ol]: on HIS-TGFβR1 T204D, the IC50 amounted to 0.153 µM.

Molecule `CC(O)c1cnc2ccc(-c3c(-c4ccc(F)cc4)n[nH]c3C3CC3)cn12` (centres unmarked) [Example 91, 1-(6-(5-cyclopropyl-3-(4-fluorophenyl)-1H-pyrazol-4-yl)imidazo[1,2-a]pyridin-3-yl)ethanol] displayed an IC50 at HIS-TGFβR1 T204D of 0.008 µM.

`Cc1cccc(-c2n[nH]c(C(F)F)c2-c2ccc3nccn3c2)n1` [Example 140, 6-(5-(difluoromethyl)-3-(6-methylpyridin-2-yl)-1H-pyrazol-4-yl)imidazo[1,2-a]pyridine] had an IC50 at HIS-TGFβR1 T204D of 0.001 µM.

Regarding `Cc1cccc(-c2n[nH]cc2-c2ccc3[nH]ncc3c2)n1` [Example 18, 5-(3-(6-methylpyridin-2-yl)-1H-pyrazol-4-yl)-1H-indazole], the IC50 at HIS-TGFβR2 WT amounted to 0.752 µM.

`CC(C)c1[nH]nc(-c2ccc(Cl)cc2)c1-c1ccc2nccn2c1` [Example 77, 6-(3-(4-chlorophenyl)-5-isopropyl-1H-pyrazol-4-yl)imidazo[1,2-a]pyridine] came in with an IC50 at HIS-TGFβR1 T204D of 0.144 µM.

`CC(=O)Nc1[nH]nc(-c2ccc(F)cc2)c1-c1ccc2ncc(C(N)=O)n2c1` [Example 143, 6-(5-acetamido-3-(4-fluorophenyl)-1H-pyrazol-4-yl)imidazo[1,2-a]pyridine-3-carboxamide] yielded an IC50 at HIS-TGFβR1 T204D of 0.027 µM. Against the preceding molecule, the IC50 is about 5.3-fold lower.

Turning to `NC(=O)c1cnc2ccc(-c3cn(CC(F)F)nc3-c3cccc(C(F)(F)F)n3)cn12` [Example 8, 6-(1-(2,2-difluoroethyl)-3-(6-(trifluoromethyl)pyridin-2-yl)-1H-pyrazol-4-yl)imidazo[1,2-a]pyridine-3-carboxamide], on HIS-TGFβR1 T204D, the IC50 is 0.006 µM. Against the preceding molecule, the IC50 is about 4.5-fold lower.

As for `CC(C)(O)c1cnc2ccc(-c3c(-c4ccc(F)cc4)n[nH]c3C3CC3)cn12` [Example 89, 2-(6-(5-cyclopropyl-3-(4-fluorophenyl)-1H-pyrazol-4-yl)imidazo[1,2-a]pyridin-3-yl)propan-2-ol], the 50% inhibitory concentration (IC50) on HIS-TGFβR1 T204D was determined as 0.01 µM. This IC50 is about 1.7-fold higher than that of the molecule before.

In the case of `N#Cc1cnc2ccc(-c3c(-c4ccc(F)cc4)n[nH]c3C(=O)NC3CC3)cn12` [Example 131, 4-(3-cyanoimidazo[1,2-a]pyridin-6-yl)-N-cyclopropyl-3-(4-fluorophenyl)-1H-pyrazole-5-carboxamide], on HIS-TGFβR1 T204D, the IC50 worked out at 1.41 µM.

On HIS-TGFβR1 T204D, `N#Cc1cnc2ccc(-c3cn(CC(F)F)nc3-c3cccc(C(F)(F)F)n3)cn12` [Example 7, 6-(1-(2,2-difluoroethyl)-3-(6-(trifluoromethyl)pyridin-2-yl)-1H-pyrazol-4-yl)imidazo[1,2-a]pyridine-3-carbonitrile] yielded a half-maximal inhibitory concentration (IC50) of 0.008 µM.

`N#Cc1cnc2ccc(-c3c[nH]nc3-c3cccc(C(F)(F)F)n3)cn12` [Example 1, 6-(3-(6-(trifluoromethyl)pyridin-2-yl)-1H-pyrazol-4-yl)imidazo[1,2-a]pyridine-3-carbonitrile] yielded an IC50 at HIS-TGFβR1 T204D of 0.001 µM.
